Experiment [1] has as its system IL-9 induced eotaxin. The experiment is described as follows: IL-9 induced eotaxin production in murine primary lung cultures (eotaxin ELISA). The following applies: 100 μM channel blocker, FVB primary lung cultures with mIL-9, FIG. 18. The class given is cell-based, mouse. From the text:
IL-9 is known to induce eotaxin from lung epithelial cells (Dong, et.al., submitted for publication, Eur. J. Immunol.). In situ expression analysis of IL-9 transgenic mice found ICACC-1 expression to be predominant in airway epithelial cells. These epithelial cells also produce eotaxin, and eotaxin can be induced by IL-9 in these cells as well as primary lung cultures from a variety of different mouse strains. Because eotaxin and ICACC-1 are both induced by IL-9 in lung epithelial cells, it is possible that inhibiting ICACC-1 can inhibit eotaxin or other cytokines such as IL-4 or IL-13 (Doucet et al., J. Clin. Invest. 101:2129-2139, 1998.) that induce eotaxin production in lung epithelial cells. To test this hypothesis, we employed a murine primary lung assays, where lung cells were harvested from FVB/NJ mice as described in Example 5A and processed for in vitro analysis as described in Example 6 for human primary lung culture. Cells were incubated with or without 20 ng/ml recombinant mIL-9 for 48 hours. After 48 hours, conditioned supernatant was collected and analyzed for murine eotaxin production using an eotaxin ELISA kit (R&D Systems). Recombinant murine eotaxin was used to generate a standard curve. […] A culture derived from IL-9 transgenic mouse lung (TG5 lane) was used as a positive control. […]
For orientation: ELISA stands for enzyme-linked immunosorbent assay.

Experiment [2] concerns ICACC-1. The experiment is described as follows: ICACC-1 RNA expression in lung after intratracheal IL-9 (RT-PCR). Format: in vivo, mouse. The following applies: C57B6 mice, 50 μl of 0.1 mg/ml IL-9 intratracheal daily for ten days, FIG. 8. On the procedure: Message was analyzed by PCR as described (Nicolaides et al., 1995) and via Northern blot. Primers used to generate murine ICACC-1 message were; sense 5′-[…]-3′ (SEQ ID NO:7) (nucleotides 689-712) and antisense 5′-[…]-3′ (SEQ ID NO:8) (nucleotides 1041-1064) which produce a gene product of 376 bp. DHFR was assayed as an internal control to measure for cDNA integrity using primers previously described (Nicolaides et al., 1991). Amplification conditions used were 95° C. for 30 seconds, 58° C. for 1.5 minutes and 72° C. for 1.5 minutes for 35 cycles. For Northern blot analysis, total RNA derived from Tg5 or FVB lungs was electrophoresed on 1.5% formaldehyde gels, transferred to nylon membranes and probed with a DNA fragment comprising the murine ICACC-1 cDNA.
To confirm that the expression of IL-9 was critically related to the expression of ICACC-1 and to control for genetic background specifically, recombinant murine IL-9 was introduced into the lung of murine strain C57B6. Recombinant IL-9 was instilled into the trachea of anesthetized mice by addition of 50 μl of a 0.1 mg/ml IL-9 solution or vehicle alone (0.1% bovine serum albumin) daily for ten days. […]
Expression of ICACC-1 RNA was measured as described in Example 3.

On to `O=S(=O)(O)c1cc(N=C=S)ccc1C=Cc1ccc(N=C=S)cc1S(=O)(=O)O` [DIDS], for which, in experiment [1], the eotaxin production inhibited was 33%.

As for `CC(=O)Nc1ccc(C=Cc2ccc(N=C=S)cc2S(=O)(=O)O)c(S(=O)(=O)O)c1` [SITS], the eotaxin production inhibited in experiment [1] is on record as 41%.

B1: mIL-9: recombinant murine IL-9 (protein, UniProt P15247 19-144, looked up)
Interleukin-9: QRCSTTWGIRDTNYLIENLKDDPPSKCSCSGNVTSCLCLSVPTDDCTTPCYREGLLQLTNATQKSRLLPVFHRVKRIVEVLKNITCPSFSCEKPCNQTMAGNTLSFLKSLLGTFQKTEMQRQKSRP
Regarding B1, the “ICACC-1 RNA expression in lung (RT-PCR)” value in experiment [2] is on record as “expression increased”.

The values above are taken from patent publication US6716603B2, “Nucleic acids encoding a chloride channel protein” (Genaera Corporation, priority 1998, dated 2004).
